Entries after “also recorded” stand apart in the source; their conditions may differ.
Experiments:
STAT3 = STAT3 phosphorylation in T cells; assay type: cell-based, human
[1] = system: TGF-β-induced STAT3, MLC and SMAD2/3 phosphorylation; assay: TGF-β-induced phosphorylation of STAT3, MLC and SMAD2/3 in Tregs; assay type: cell-based
PBMCs = assay: ex vivo anti-CD3/CD28 stimulated cytokine production in PBMCs isolated from treated patients; set-up: species or system human; conditions: 120 mg/day, days 1 and 8-14
human CD4^+ T cells = assay: proliferation of T cells in response to TCR stimulation in vitro; assay type: cell-based; conditions: listed as KD025
[2] = system: CD4^+ T cells from RA patients; assay: cytokine secretion ex vivo by CD3/CD28 stimulated CD4+ T cells from RA patients; assay type: cell-based, human; conditions: listed as KD025

Structure (SMILES): CC(C)NC(=O)COc1cccc(-c2nc(Nc3ccc4[nH]ncc4c3)c3ccccc3n2)c1 [SLx-2119]
- STAT3 phosphorylation (STAT3; Th17-skewing conditions 5 days, then treated 3 hours): STAT3 phosphorylation was reduced
- phosphorylation of STAT3 (STAT3; pre-treatment, then anti-CD3/CD28 stimulation): reduced phosphorylation of STAT3
- phosphorylation of STAT3, IFR4 and RORγT (STAT3; separate experiment (FIG. 9C)): reduced phosphorylation
- phosphorylation of STAT3 (STAT3; two different experimental designs, listed as KD025): inhibits STAT3 phosphorylation; also recorded: significantly down-regulates
- TGF-β-induced STAT3 and MLC phosphorylation [1]: down-regulates
- induction of IL-17 secretion in PBMCs (PBMCs): significantly inhibited in PBMCs isolated from four of five patients
- induction of IL-21 secretion in PBMCs (PBMCs): significantly inhibited in PBMCs from all five patients
- proliferation in response to TCR stimulation (human CD4^+ T cells): inhibits; also recorded: down-regulated their ability to proliferate
- secretion of IFN-γ [2]: inhibits; also recorded: significantly down-regulated
- secretion of IL-17 [2]: inhibits; also recorded: significantly down-regulated
- secretion of IL-21 [2]: inhibits; also recorded: significantly down-regulated

From US10696660B2, “Rho kinase inhibitors” (priority 2012, dated 2020)
